Experimental data reported in BindingDB's records for patent US20250304587 (Jiangsu Tasly Diyi Pharmaceutical, 2025).

Target: Cytochrome P450 2C19 (Homo sapiens, UniProt P33261)
Test: Evaluation of Compound Inhibition of Cytochrome P450
Method: Enzymatic experiments were performed to quantify the inhibition of CYP450 enzyme activity of each isoform of CYP450 by small molecule inhibitors through fluorescence generated by the oxidation of the substrate by cytochrome P450. […] The Solution B composition used for the experiment was: 40 U/mL G6PDH (Sigma-aldrich, Cat #G6378). The substrate mix was 0.05× Solution A, 0.01× Solution B, 50 mM Potassium Phosphate, 0.01 mM BOMCC/0.01 mM EOMCC/0.001 mM DBOMF.

Chain of Cytochrome P450 2C19 (P33261 whole entry): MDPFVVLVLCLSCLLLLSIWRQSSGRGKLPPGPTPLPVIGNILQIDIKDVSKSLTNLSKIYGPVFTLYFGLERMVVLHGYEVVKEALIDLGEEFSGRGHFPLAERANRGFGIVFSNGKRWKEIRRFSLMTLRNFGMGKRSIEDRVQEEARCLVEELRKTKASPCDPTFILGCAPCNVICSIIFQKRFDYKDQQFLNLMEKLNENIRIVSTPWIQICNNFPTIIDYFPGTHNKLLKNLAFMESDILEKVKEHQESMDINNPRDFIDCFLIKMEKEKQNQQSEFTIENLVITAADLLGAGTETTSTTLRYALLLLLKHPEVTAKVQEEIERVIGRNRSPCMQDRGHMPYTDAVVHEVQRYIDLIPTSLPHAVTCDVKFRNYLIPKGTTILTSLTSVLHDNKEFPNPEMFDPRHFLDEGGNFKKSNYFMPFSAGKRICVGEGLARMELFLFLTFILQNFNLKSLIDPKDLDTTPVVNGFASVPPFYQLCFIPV

Structure (SMILES)	IC50 [µM]
C=CCn1c(=O)c2cnc(Nc3ccc(N4CCC5(CCN(C)CC5)CC4)cc3)nc2n1-c1ccc2c(n1)[C@](C)(O)C1(CC2)CC1 (racemic) [US20250304587, Compound 44]	1 to 10
C=CCn1c(=O)c2cnc(Nc3ccc(N4CC5CC(C4)N5C)cc3)nc2n1-c1ccc2c(n1)[C@@](C)(O)C1(CC2)CC1 [US20250304587, Compound 7a]	1 to 10
